In brackets after ≈: the same amount, converted by molar mass.
Legend:
E. coli DSM 1116 = assay: MIC determination (broth microdilution); type: cell-based, Escherichia coli; conditions: Escherichia coli, DSM1116; E. coli DSM 1116; read-out: MIC
Method: (§1) 1.1.1 In vitro experiments
(§2) Determination of Minimal inhibitory concentrations (MIC)
(§3) Approved Standard M07-A9.1
(§4) CFU mL-1. […] Albicidin and […]
(§5) and serially diluted in DMSO (100%). […]
(§6) in 0.1 N HCL, respectively.
(§7) One row of each well plate served as a […]
(§8) sterility control (only MHB II-media). […]
(§9) adding 5 µL DMSO to several wells. […]
(§10) for growth inhibition by naked eye.
(§11) Microorganisms and Cell Cultures (DSMZ): […]

S. Typhimurium TA100 = assay: MIC determination (broth microdilution); type: cell-based, Salmonella typhimurium; conditions: Salmonella enterica; S. Typhimurium TA100; read-out: MIC
Method: as §1, §2, §3, §4, §5, §6, §7, §8, §9, §10, §11

B. subtilis DSM 10 = assay: MIC determination (broth microdilution); type: cell-based; conditions: Bacillus subtilis, DSM10; B. subtilis DSM 10; read-out: MIC
Method: as §1, §2, §3, §4, §5, §6, §7, §8, §9, §10, §11

E. coli BW25113 = assay: MIC determination (broth microdilution); type: cell-based; conditions: Escherichia coli
Method: as §1, §2, §3, §4, §5, §6, §7, §8, §9, §10, §11

M. luteus DSM1790 = assay: MIC determination (broth microdilution); type: cell-based, Micrococcus luteus; conditions: Micrococcus luteus; M. luteus DSM1790; read-out: MIC
Method: as §1, §2, §3, §4, §5, §6, §7, §8, §9, §10, §11

M. phlei DSM 750 = assay: MIC determination (broth microdilution); type: cell-based, Mycobacterium phlei; conditions: Mycolicibacterium phlei, DSM750; M. phlei DSM 750; read-out: MIC
Method: as §1, §2, §3, §4, §5, §6, §7, §8, §9, §10

[1] = tested on: E. coli DSM 1116 + 50% Human Serum; assay: MIC determination in presence of 50% human serum; type: cell-based; conditions: Escherichia coli, DSM1116; E. coli DSM 1116 + 50% Human Serum; read-out: MIC
Excerpt: This investigation was completed by assessment of the antibacterial activity in presence of human plasma (50%) (Table 1), since high plasma protein binding can severely impair antibacterial activity and thus efficacy.
as §1, §2, §3, §4, §5, §6, §7, §8, §9, §10, §11

E. coli DNA gyrase = molecular target: T1, E. coli DNA gyrase (Escherichia coli, UniProt P0AES4+P0AES6); assay: E. coli gyrase supercoiling inhibition assay; type: biochemical; parameters: key: ↑: for stronger inhibition; ≈: for equal inhibition; ↓: for diminished inhibition compared to albicidin 1; conditions: constant concentration of 45 nM, compared to albicidin 1
T1 construct: purchased inspiralis Limited, Norwich, UK
Method: Escherichia coli Gyrase Supercoiling Inhibition Assay
loaded on an agarose gel.
2-15. […] Addition of DNA
All derivatives were tested at a concentration of […]

Gram-negative strains = assay: MIC, primary panel; type: cell-based; conditions: Salmonella enterica, TYPHIMURIUM
Method: as §1, §2, §3, §4, §5, §6, §7, §8, §9, §10
(§12) Microorganisms and Cell Cultures (DSMZ):
Mycobacterium phlei DSM 750
Salmonella typhimurium TA100 was kindly provided by Prof. Dr. Vera Meyer (Technische Universität […]
Brötz-Oesterheldt (Tübingen, Germany)/ Prof. Dr. Heisig (Hamburg, Germany)2 Escherichia coli WT (GK571)
Escherichia coli WT-3-1 (GK796) [gyrA (S83L, D87G)]
Escherichia coli MI (GK572) [gyrA (S83L)] […]
or by Prof. Dr. Werner (Robert-Koch-Institut, Wernigerode, Germany): […]

Gram-positive strains = assay: MIC, primary panel; type: cell-based
Method: as §1, §2, §3, §4, §5, §6, §7, §8, §9, §10, §12
Mycobacterium phlei DSM 750 […]
(§13) Dr. Werner (Robert-Koch-Institut, Wernigerode, Germany): […]

[2] = tested on: E. coli (ciprofloxacin resistant clinical isolate); assay: microbe, parasite or virus in culture; type: cell-based, Escherichia coli; conditions: Escherichia coli
Method: as §1, §2, §3, §4, §5, §6, §7, §8, §9, §10, §11, §13

[3] = tested on: E. coli (ciprofloxacin susceptible clinical isolate); assay: MIC, extended panel; type: cell-based; conditions: Escherichia coli
Method: as §1, §2, §3, §4, §5, §6, §7, §8, §9, §10, §11, §13

[4] = tested on: Salmonella Kentucky (ciprofloxacin susceptible clinical isolate); assay: MIC, extended panel; type: cell-based; conditions: Salmonella enterica
Method: as §1, §2, §3, §4, §5, §6, §7, §8, §9, §10, §11, §13

[5] = tested on: K. pneumoniae (ciprofloxacin resistant clinical isolate); assay: microbe, parasite or virus in culture; type: cell-based; conditions: Klebsiella pneumoniae
Method: as §1, §2, §3, §4, §5, §6, §7, §8, §9, §10, §11, §13

[6] = tested on: Salmonella Kentucky (ciprofloxacin resistant clinical isolate); assay: microbe, parasite or virus in culture; type: cell-based; conditions: Salmonella enterica
Method: as §1, §2, §3, §4, §5, §6, §7, §8, §9, §10, §11, §13

[7] = tested on: K. pneumoniae (ciprofloxacin susceptible clinical isolate); assay: MIC, extended panel; type: cell-based, Klebsiella pneumoniae; conditions: Klebsiella pneumoniae
Method: as §1, §2, §3, §4, §5, §6, §7, §8, §9, §10, §11, §13

[8] = tested on: S. aureus (ciprofloxacin resistant clinical isolate); assay: microbe, parasite or virus in culture; type: cell-based, Staphylococcus aureus; conditions: Staphylococcus aureus
Method: as §1, §2, §3, §4, §5, §6, §7, §8, §9, §10, §11, §13
(§14) for the following 11 pathogenic isolates: […]

[9] = tested on: S. aureus (ciprofloxacin susceptible clinical isolate); assay: MIC, extended panel; type: cell-based; conditions: Staphylococcus aureus
Method: as §1, §2, §3, §4, §5, §6, §7, §8, §9, §10, §11, §13, §14

[10] = tested on: A. baumannii (ciprofloxacin resistant isolate); assay: microbe, parasite or virus in culture; type: cell-based, Acinetobacter baumannii; conditions: Acinetobacter baumannii
Method: as §1, §2, §3, §4, §5, §6, §7, §8, §9, §10, §11, §13, §14

[11] = tested on: E. faecium (ciprofloxacin resistant clinical isolate); assay: microbe, parasite or virus in culture; type: cell-based; conditions: Enterococcus faecium
Method: as §1, §2, §3, §4, §5, §6, §7, §8, §9, §10, §11, §13, §14

[12] = tested on: P. aeruginosa (ciprofloxacin resistant clinical isolate); assay: microbe, parasite or virus in culture; type: cell-based; conditions: Pseudomonas aeruginosa
Method: as §1, §2, §3, §4, §5, §6, §7, §8, §9, §10, §11, §13, §14

[13] = tested on: P. aeruginosa (ciprofloxacin susceptible clinical isolate); assay: MIC, extended panel; type: cell-based, Pseudomonas aeruginosa; conditions: Pseudomonas aeruginosa
Method: as §1, §2, §3, §4, §5, §6, §7, §8, §9, §10, §11, §13, §14

in vitro = conditions: plasma, pH 7.4
Method: Determination of plasma stability
Human and murine plasma aliquots (Sigma-Aldrich, Taufkirchen, Germany) were thawed and subsequently centrifuged at 3000 rpm for 10 min at 4°C. Resulting supernatant was diluted in the same volume of phosphate buffer (pH 7.4) to obtain a plasma concentration of 50% (v/v). Stock solutions of […]
concentration of 20 µM (5% DMSO). Following incubation at 37°C ice-cold methanol containing 30% […]
were centrifuged at 4000 rpm for 20 min at 4°C and 100 µL of supernatant were directly transferred to a fresh MS-vial. Samples were analyzed by LC/MS-MS experiments. Quantification of remaining compounds was performed by an external calibration curve of standard solutions in the range of […]

DNA gyrase = conditions: read-out: half maximum inhibitory concentration (IC50); cited from earlier work
physchem = conditions: 20 °C, kinetic from dmso stock
[14] = tested on: E. faecium (ciprofloxacin susceptible clinical isolate); assay: microbe, parasite or virus in culture; conditions: Enterococcus faecium

SMILES | MIC (E. coli DSM 1116) [mg/L] | MIC (S. Typhimurium TA100) [mg/L] | MIC (B. subtilis DSM 10) [mg/L] | MIC (E. coli BW25113) [mg/L] | MIC (M. luteus DSM1790) [mg/L] | MIC (M. phlei DSM 750) [mg/L] | MIC [1] [mg/L] | E. coli gyrase inhibition (E. coli DNA gyrase) | also measured
COc1c(NC(=O)c2ccc(NC(=O)[C@H](Cc3c[nH]nn3)NC(=O)c3ccc(NC(=O)/C(C)=C/c4ccc(O)cc4)cc3)cc2)ccc(C(=O)Nc2ccc(C(=O)O)nc2)c1O [Compound 12] | 64 (≈ 76.2 µM) | 0.125 (≈ 0.149 µM) | ≥ 128 | ≥ 128 | 32 (≈ 38.1 µM) | 32 (≈ 38.1 µM) | ≥ 8 | ↓ | MIC (Gram-negative strains): > 32 mg/L; MIC (Gram-positive strains): > 32 mg/L
COc1c(NC(=O)c2ccc(NC(=O)[C@H](Cc3c[nH]nn3)NC(=O)c3ccc(NC(=O)/C(C)=C/c4ccc(O)cc4)cc3)cc2)ccc(C(=O)Nc2ccc(C(=O)O)cc2)c1O [Compound 14, reference compound] | 0.25 (≈ 0.298 µM) | 0.016 (≈ 0.0191 µM) | 0.5 (≈ 0.596 µM) | 0.125 (≈ 0.149 µM) | 2 (≈ 2.38 µM) | 1 (≈ 1.19 µM) | 8 | ≈ | –
COc1c(NC(=O)c2ccc(NC(=O)c3ccc(NC(=O)[C@H](Cc4c[nH]nn4)NC(=O)c4ccc(NC(=O)/C(C)=C/c5ccc(O)cc5)cc4)cc3)cn2)ccc(C(=O)O)c1O [Compound 9] | 0.031 (≈ 0.0369 µM) | 0.031 (≈ 0.0369 µM) | 1 (≈ 1.19 µM) | 0.031 (≈ 0.0369 µM) | 1 (≈ 1.19 µM) | 1 (≈ 1.19 µM) | ≥ 8 | ↓ | –
COc1c(NC(=O)c2ccc(NC(=O)c3ccc(NC(=O)[C@H](CC#N)NC(=O)c4ccc(NC(=O)/C(C)=C/c5ccc(O)cc5)cc4)cc3)c(OC)c2O)ccc(C(=O)O)c1O [Compound 1, albicidin] | – | – | – | – | – | – | – | – | MIC [2]: 0.125 mg/L (≈ 0.148 µM); MIC [3]: 0.031 mg/L (≈ 0.0368 µM); MIC [4]: 0.063 mg/L (≈ 0.0747 µM); MIC [5]: ≥ 128 mg/L; MIC [6]: 0.25 mg/L (≈ 0.297 µM); MIC [7]: ≥ 128 mg/L; MIC [8]: 4 mg/L (≈ 4.75 µM); MIC [9]: 2 mg/L (≈ 2.37 µM); MIC [10]: 2 mg/L (≈ 2.37 µM); MIC [11]: 16 mg/L (≈ 19 µM); MIC [12]: 2 mg/L (≈ 2.37 µM); MIC [13]: 1 mg/L (≈ 1.19 µM); half-life at 20 µM (in vitro; human): 60 min; half-life at 20 µM (in vitro; mouse): 30 min; IC50 (DNA gyrase): 0.04 µM; solubility at 20 h (physchem; pH 7.4, aqueous with cosolvent or surfactant or cyclodextrin): 5.53 µg/mL (≈ 6.56 µM); solubility kinetic at 20 h (physchem; pH 7.5, aqueous with cosolvent or surfactant or cyclodextrin): 5.53 µg/mL (≈ 6.56 µM); MIC [14]: 0.25 mg/L (≈ 0.297 µM)

From paper PMC8580050, “Improvement of the antimicrobial potency, pharmacokinetic and pharmacodynamic properties of albicidin by incorporation of nitrogen atoms” (Chemical Science, 2021)
